Measured values published in patent EP0086590A1, “Antibacterial agents, their preparation and use” (priority 1982, dated 1983).
Values after ≈ are worked out from the molar mass of the structure shown. Structures can show the parent of a compound that is named as a salt.

Tests used:
[1] = Mouse urinary recovery of antibacterial agent; assay type: in vivo; conditions: urine, sc, 10 mg/kg s/c, parent antibacterial agent administered alone
Description: By way of comparison. the parent antibacterial agent of the compound of Example 2 (ie sodium salt of [-2-acetamido- ethenylthio]-6-(I-hydroxysulphonyloxyethyl)-7-oxo-l-azabicyclo[3.2.0]hept-2-ene-2-carboxylic acid) was administered together with the corresponding dipeptidase inhibitor (ie 2-isovaleramidobut-2-ene) in a 1:1 relationship. […] However, since the compound of Example 2 liberates an approximate ratio of 2:1 by weight of antibacterial agent to inhibitor, the compound of Example 2 makes much more efficient use of the dipeptidase inhibitor.

Pseudomonas aeruginosa A = experiment: Antibacterial activity (mic); assay type: cell-based
Proteus rettgeri WM16 = experiment: Antibacterial activity (mic); assay type: cell-based; conditions: Providencia rettgeri
Klebsiella aerogenes A = experiment: Antibacterial activity (mic); assay type: cell-based
[2] = tested on: Staphylococcus aureus Oxford; experiment: Antibacterial activity (mic); assay type: cell-based
Proteus mirabilis 977 = experiment: Antibacterial activity (mic); assay type: cell-based
[3] = tested on: Staphylococcus aureus Russell; experiment: Antibacterial activity (mic); assay type: cell-based
Proteus morganii 1580 = experiment: Antibacterial activity (mic); assay type: cell-based; conditions: Morganella morganii
Escherichia coli JT39 R+ = experiment: Antibacterial activity (mic); assay type: cell-based
[4] = tested on: Pseudomonas aeruginosa Dalgleish; experiment: Antibacterial activity (mic); assay type: cell-based
[5] = Effect of serum on antibacterial activity; assay type: cell-based
Bacillus subtilis A = experiment: Antibacterial activity (mic); assay type: cell-based
Enterobacter cloacae N1 = experiment: Antibacterial activity (mic); assay type: cell-based
Escherichia coli ESS = experiment: Antibacterial activity (mic); assay type: cell-based
Streptococcus faecalis I = experiment: Antibacterial activity (mic); assay type: cell-based; conditions: Enterococcus faecalis
[6] = tested on: Serratia marcescens NEU3974; experiment: Antibacterial activity (mic); assay type: cell-based
Escherichia coli 0111 = experiment: Antibacterial activity (mic); assay type: cell-based
[7] = tested on: Pseudomonas aeruginosa 11; experiment: Antibacterial activity (mic); assay type: cell-based
Escherichia coli E96 R+ = experiment: Antibacterial activity (mic); assay type: cell-based
Serratia marcescens US20 = experiment: Antibacterial activity (mic); assay type: cell-based
Escherichia coli E8 = experiment: Antibacterial activity (mic); assay type: cell-based
Proteus mirabilis 13 = experiment: Antibacterial activity (mic); assay type: cell-based

CC(=O)NC=CSC1=C(C(=O)O)N2C(=O)C(C(C)O)C2C1 [(A), Sodium (5R,6R)-3-[(E)-2-acetamidoethenylthio]-6-[(S)-1-hydroxyethyl]-7-axo-1-azabicyclo[3.2.0]hept-2-ene-2-carboxylate]
dose excreted [1]: 0.3%

C/C=C(\NC(=O)CC(C)C)C(=O)OCOC(=O)C1=C(Sc2ncccn2)C[C@@H]2[C@@H]([C@@H](C)O)C(=O)N12 (racemic) [Example 3, 2-Isovaleramidobut-2Z-enoyloxymethyl 5(R,S),6(S,R)-3-(pyrimidin-2-ylthio)-6-[l(R,S)-hydroxyethyl]-7-oxo-1-azabicyclo[3.2.0]hept-2-ene-2-carboxylate]
MIC (Pseudomonas aeruginosa A): > 100 mg/L
MIC (Proteus rettgeri WM16): 25 mg/L (≈ 49.5 µM)
MIC (Klebsiella aerogenes A): 3.1 mg/L (≈ 6.14 µM)
MIC [2]: 0.8 mg/L (≈ 1.59 µM)
MIC (Proteus mirabilis 977): 12.5 mg/L (≈ 24.8 µM)
MIC [3]: 0.8 mg/L (≈ 1.59 µM)
MIC (Proteus morganii 1580): 25 mg/L (≈ 49.5 µM)
MIC (Escherichia coli JT39 R+): 3.1 mg/L (≈ 6.14 µM)
MIC [4]: > 100 mg/L
Effect of serum on activity [5]: 10-20 fold
MIC (Bacillus subtilis A): 0.8 mg/L (≈ 1.59 µM)
MIC (Enterobacter cloacae N1): 25 mg/L (≈ 49.5 µM)
MIC (Escherichia coli ESS): 1.6 mg/L (≈ 3.17 µM)
MIC (Streptococcus faecalis I): 50 mg/L (≈ 99.1 µM)
MIC [6]: 100 mg/L (≈ 198 µM)
MIC (Escherichia coli 0111): 6.2 mg/L (≈ 12.3 µM)

CC(=O)NC=CSC1=C(C(=O)O)N2C(=O)C(C(C)OS(=O)(=O)O)C2C1 (stereo not drawn) [(B), sodium salt of [-2-acetamido-ethenylthio]-6-(I-hydroxysulphonyloxyethyl)-7-oxo-l-azabicyclo[3.2.0]hept-2-ene-2-carboxylic acid]
dose excreted [1]: 1.5%

CC=C(NC(=O)CC(C)C)C(=O)OCOC(=O)C1=C(SC=CNC(C)=O)CC2C(C(C)OS(=O)(=O)O)C(=O)N12 [Example 2, Sodium salt of 2-Isovaleramidobut-2Z-en-oyloxymethyl (5R,6R)-3-[(E)-2-acetamidoethenylthio]-6-[(S)-l-hydroxysulphonyloxyethyl]-7-oxo-l-azabicyclo[3.2.0]hept 2-ene-2-carboxylate]
MIC (Pseudomonas aeruginosa A): 100 mg/L
MIC (Proteus rettgeri WM16): 0.8 mg/L
MIC (Klebsiella aerogenes A): 0.4 mg/L
MIC [2]: 1.6 mg/L
MIC [7]: 100 mg/L
MIC (Proteus mirabilis 977): 3.1 mg/L
MIC [3]: 3.1 mg/L
MIC (Escherichia coli JT39 R+): 1.6 mg/L
MIC [4]: 100 mg/L
Effect of serum on activity [5]: 2-4 fold
MIC (Bacillus subtilis A): 1.6 mg/L
MIC (Escherichia coli E96 R+): 12.5 mg/L
MIC (Serratia marcescens US20): 6.2 mg/L
MIC (Enterobacter cloacae N1): 3.1 mg/L
MIC (Escherichia coli E8): 6.2 mg/L
MIC (Escherichia coli ESS): 1.6 mg/L
MIC (Streptococcus faecalis I): 50 mg/L
MIC (Escherichia coli 0111): 3.1 mg/L

C/C=C(\NC(=O)CC(C)C)C(=O)OCOC(=O)C1=C(S/C=C/NC(C)=O)C[C@@H]2[C@H]([C@H](C)O)C(=O)N12 [Example 1, 2-Isovaleramidobut-2Z-enoyloxymethyl (5R,6R)-3-[(E)-2-acetamidoethenylthio]-6-[(S)-1-hydroxyethyl]-7-oxo-1-azabicyclo[3.2.0]hept-2-ene-2-carboxylate]
MIC (Pseudomonas aeruginosa A): > 100 mg/L
MIC (Proteus rettgeri WM16): 6.2 mg/L (≈ 12.2 µM)
MIC (Klebsiella aerogenes A): 6.2 mg/L (≈ 12.2 µM)
MIC [2]: 0.4 mg/L (≈ 0.785 µM)
MIC [7]: 100 mg/L (≈ 196 µM)
MIC (Proteus mirabilis 977): 3.1 mg/L (≈ 6.08 µM)
MIC [3]: 0.8 mg/L (≈ 1.57 µM)
MIC (Proteus morganii 1580): 25 mg/L (≈ 49.1 µM)
MIC (Escherichia coli JT39 R+): 25 mg/L (≈ 49.1 µM)
MIC [4]: 100 mg/L (≈ 196 µM)
Effect of serum on activity [5]: 2-8 fold
MIC (Bacillus subtilis A): 0.4 mg/L (≈ 0.785 µM)
MIC (Escherichia coli E96 R+): 100 mg/L (≈ 196 µM)
MIC (Serratia marcescens US20): 6.2 mg/L (≈ 12.2 µM)
MIC (Enterobacter cloacae N1): 6.2 mg/L (≈ 12.2 µM)
MIC (Escherichia coli E8): 0.8 mg/L (≈ 1.57 µM)
MIC (Escherichia coli ESS): 0.2 mg/L (≈ 0.392 µM)
MIC (Streptococcus faecalis I): 3.1 mg/L (≈ 6.08 µM)
MIC (Escherichia coli 0111): 0.8 mg/L (≈ 1.57 µM)
MIC (Proteus mirabilis 13): 0.8 mg/L (≈ 1.57 µM)
